The term pEC50 denotes −log10 of the EC50, conventionally taken in molar units.

Consider 36 molecules from patent publication US20080139558A1, “QUINOLONES USEFUL AS INDUCIBLE NITRIC OXIDE SYNTHASE INHIBITORS” (KALYPSYS, INC., priority 2006, published 2008).

pEC50: −log10 of the molar value.

The target of this experiment is T1, human iNOS (Homo sapiens, UniProt P35228).
T1 construct: expressed in transfected cells; host or cells: HEK293
T1 sequence (P35228 whole entry): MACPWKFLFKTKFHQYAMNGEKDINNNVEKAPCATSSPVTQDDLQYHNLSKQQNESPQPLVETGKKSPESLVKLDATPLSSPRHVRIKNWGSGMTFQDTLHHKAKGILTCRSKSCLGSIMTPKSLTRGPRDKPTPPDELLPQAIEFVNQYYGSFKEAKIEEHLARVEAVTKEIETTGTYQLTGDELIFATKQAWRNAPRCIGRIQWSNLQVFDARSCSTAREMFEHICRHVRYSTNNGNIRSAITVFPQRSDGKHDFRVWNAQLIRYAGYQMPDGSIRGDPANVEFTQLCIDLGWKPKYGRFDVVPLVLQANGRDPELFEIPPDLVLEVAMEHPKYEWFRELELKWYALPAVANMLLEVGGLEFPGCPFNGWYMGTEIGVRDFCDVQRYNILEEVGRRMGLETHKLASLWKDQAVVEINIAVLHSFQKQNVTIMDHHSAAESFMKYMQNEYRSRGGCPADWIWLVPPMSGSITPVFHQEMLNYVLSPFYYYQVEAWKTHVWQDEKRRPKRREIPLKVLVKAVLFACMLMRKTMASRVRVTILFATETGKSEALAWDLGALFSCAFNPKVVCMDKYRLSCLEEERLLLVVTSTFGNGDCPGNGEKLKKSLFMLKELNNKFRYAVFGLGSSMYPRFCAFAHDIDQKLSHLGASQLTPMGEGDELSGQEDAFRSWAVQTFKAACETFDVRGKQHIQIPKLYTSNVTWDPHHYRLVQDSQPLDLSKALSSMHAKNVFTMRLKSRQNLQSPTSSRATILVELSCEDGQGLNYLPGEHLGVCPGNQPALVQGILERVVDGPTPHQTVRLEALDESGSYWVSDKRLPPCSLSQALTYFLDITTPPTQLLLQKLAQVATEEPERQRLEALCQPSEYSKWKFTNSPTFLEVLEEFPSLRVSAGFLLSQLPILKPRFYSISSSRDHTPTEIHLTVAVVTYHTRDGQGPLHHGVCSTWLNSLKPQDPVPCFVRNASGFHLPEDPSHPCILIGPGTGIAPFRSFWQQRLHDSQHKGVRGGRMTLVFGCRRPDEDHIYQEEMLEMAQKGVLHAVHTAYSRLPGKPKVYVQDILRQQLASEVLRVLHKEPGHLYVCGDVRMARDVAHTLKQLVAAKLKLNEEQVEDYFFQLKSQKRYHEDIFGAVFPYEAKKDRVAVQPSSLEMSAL
Nature of the experiment: DAN assay of nitric oxide production (hiNOS). In kind it is cell-based. Conditions: enzyme expressed in HEK293 cells transiently transfected with human iNOS. Put shortly: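 Human iNOS transiently expressed in HEK293 cells; NO production quantified as nitrite via 2,3-diaminonaphthalene reaction forming fluorescent naphthotriazole.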
Turning to `O=C(c1cnccn1)N(Cc1cc(=O)[nH]c2c(F)cccc12)c1cccc(Cl)c1` [Example 70, N-(3-Chlorophenyl)-N-((8-fluoro-2-oxo-1,2-dihydroquinolin-4-yl)methyl)pyrazine-2-carboxamide], the pEC50 was under 5.30. The figure for `Cc1ncccc1C(=O)N(Cc1cc(=O)[nH]c2c(F)cccc12)c1cccc(Cl)c1` [Example 71, N-(3-Chlorophenyl)-N-((8-fluoro-2-oxo-1,2-dihydroquinolin-4-yl)methyl)-2-methylnicotinamide] is under 5.30. On to `Cc1ccncc1C(=O)N(Cc1cc(=O)[nH]c2c(F)cccc12)c1cccc(Cl)c1` [Example 72, N-(3-Chlorophenyl)-N-((8-fluoro-2-oxo-1,2-dihydroquinolin-4-yl)methyl)-4-methylnicotinamide], for which the pEC50 was under 5.30. The figure for `Cc1cccnc1C(=O)N(Cc1cc(=O)[nH]c2c(F)cccc12)c1cccc(Cl)c1` [Example 73, N-(3-Chlorophenyl)-N-((8-fluoro-2-oxo-1,2-dihydroquinolin-4-yl)methyl)-3-methylpicolinamide] is under 5.30; for `CN(C)c1ccccc1C(=O)N(Cc1cc(=O)[nH]c2c(F)cccc12)c1cccc(Cl)c1` [Example 74, N-(3-Chlorophenyl)-2-(dimethylamino)-N-((8-fluoro-2-oxo-1,2-dihydroquinolin-4-yl)methyl)benzamide] it is under 5.30; for `CN(C)c1cccc(C(=O)N(Cc2cc(=O)[nH]c3c(F)cccc23)c2cccc(Cl)c2)c1` [Example 75, N-(3-Chlorophenyl)-3-(dimethylamino)-N-((8-fluoro-2-oxo-1,2-dihydroquinolin-4-yl)methyl)benzamide] it is under 5.30. The figure for `CN(C)c1ccc(C(=O)N(Cc2cc(=O)[nH]c3c(F)cccc23)c2cccc(Cl)c2)cc1` [Example 76, N-(3-Chlorophenyl)-4-(dimethylamino)-N-((8-fluoro-2-oxo-1,2-dihydroquinolin-4-yl)methyl)benzamide] is under 5.30; for `O=c1cc(CN(c2cccc(Cl)c2)c2ccccn2)c2cccc(F)c2[nH]1` [Example 77, 4-(((3-Chlorophenyl)(pyridin-2-yl)amino)methyl)-8-fluoroquinolin-2(1H)-one] it is under 5.30.

Molecule `O=c1cc(CN(c2cccc(Cl)c2)c2nccc3ccccc23)c2cccc(F)c2[nH]1` [Example 78, 4-(((3-Chlorophenyl)(isoquinolin-1-yl)amino)methyl)-8-fluoroquinolin-2(1H)-one] had a pEC50 of under 5.30. Under `Cc1ncsc1-c1nc2ccccc2n1Cc1cc(=O)[nH]c2c(F)cccc12` [Example 79, 8-Fluoro-4-((2-(4-methylthiazol-5-yl)-1H-benzo[d]imidazol-1-yl)methyl)quinolin-2(1H)-one] stands under 5.30. Under `CC(C)C(=O)N(Cc1cc(=O)[nH]c2c(F)cccc12)c1cccc(Cl)c1` [Example 80, N-(3-Chlorophenyl)-N-((8-fluoro-2-oxo-1,2-dihydroquinolin-4-yl)methyl)isobutyramide] stands under 5.30; under `O=C(C1CC1)N(Cc1cc(=O)[nH]c2c(F)cccc12)c1cccc(Cl)c1` [Example 81, N-(3-Chlorophenyl)-N-((8-fluoro-2-oxo-1,2-dihydroquinolin-4-yl)methyl)cyclopropanecarboxamide], under 5.30.

On to `O=C(c1cccc2ccccc12)N(Cc1cc(=O)[nH]c2c(F)cccc12)c1cccc(Cl)c1` [Example 82, N-(3-Chlorophenyl)-N-((8-fluoro-2-oxo-1,2-dihydroquinolin-4-yl)methyl)-1-naphthamide], for which the pEC50 was under 5.30. The figure for `O=C(c1ccc2ccccc2c1)N(Cc1cc(=O)[nH]c2c(F)cccc12)c1cccc(Cl)c1` [Example 83, N-(3-Chlorophenyl)-N-((8-fluoro-2-oxo-1,2-dihydroquinolin-4-yl)methyl)-2-naphthamide] is under 5.30. In the case of `O=C(c1ccc2ncccc2c1)N(Cc1cc(=O)[nH]c2c(F)cccc12)c1cccc(Cl)c1` [Example 84, N-(3-Chlorophenyl)-N-((8-fluoro-2-oxo-1,2-dihydroquinolin-4-yl)methyl)quinoline-6-carboxamide], the pEC50 is under 5.30.

The molecule `Cc1ncsc1C(=O)N(Cc1cc(=O)[nH]c2c(F)cccc12)c1ccc(F)c(Cl)c1` [Example 85, N-(3-Chloro-4-fluorophenyl)-N-((8-fluoro-2-oxo-1,2-dihydroquinolin-4-yl)methyl)-4-methylthiazole-5-carboxamide] gave a pEC50 of at least 5.30. In the case of `Cc1ncsc1C(=O)N(Cc1cc(=O)[nH]c2c(F)c(F)ccc12)C1CC1` [Example 86, N-Cyclopropyl-N-((7,8-fluoro-2-oxo-1,2-dihydroquinolin-4-yl)methyl)-4-methylthiazole-5-carboxamide], the pEC50 is under 5.30. For `Cc1ncsc1C(=O)N(Cc1cc(=O)[nH]c2c(F)cccc12)C1CC1` [Example 87, N-Cyclopropyl-N-((8-fluoro-2-oxo-1,2-dihydroquinolin-4-yl)methyl)-4-methylthiazole-5-carboxamide], the pEC50 was under 5.30. The figure for `Cc1ncsc1C(=O)N(Cc1cc(=O)[nH]c2c(F)c(F)ccc12)c1cc(Cl)ccc1F` [Example 88, N-(3-Chloro-6-fluorophenyl)-N-((7,8-fluoro-2-oxo-1,2-dihydroquinolin-4-yl)methyl)-4-methylthiazole-5-carboxamide] is at least 5.30; for `Cc1ncsc1C(=O)N(Cc1cc(=O)[nH]c2c(F)c(F)ccc12)c1cc(F)cc(Cl)c1` [Example 89] it is at least 5.30; for `Cc1ncsc1C(=O)N(Cc1cc(=O)[nH]c2c(F)c(F)ccc12)c1ccccc1F` [Example 90, N-(2-Fluorophenyl)-N-((7,8-fluoro-2-oxo-1,2-dihydroquinolin-4-yl)methyl)-4-methylthiazole-5-carboxamide] it is at least 5.30. The figure for `Cc1ncsc1C(=O)N(Cc1cc(=O)[nH]c2c(F)cccc12)c1ccc(F)c(F)c1` [Example 92, N-(3,4-Difluorophenyl)-N-((8-fluoro-2-oxo-1,2-dihydroquinolin-4-yl)methyl)-4-methylthiazole-5-carboxamide] is at least 5.30; for `Cc1cccc(N(Cc2cc(=O)[nH]c3c(F)cccc23)C(=O)c2scnc2C)c1` [Example 93, N-(3-Methylphenyl)-N-((8-fluoro-2-oxo-1,2-dihydroquinolin-4-yl)methyl)-4-methylthiazole-5-carboxamide] it is at least 5.30. The figure for `Cc1cccc(N(Cc2cc(=O)[nH]c3c(F)c(F)ccc23)C(=O)c2scnc2C)c1` [Example 94, N-(3-Methylphenyl)-N-((7,8-fluoro-2-oxo-1,2-dihydroquinolin-4-yl)methyl)-4-methylthiazole-5-carboxamide] is at least 5.30. In turn, `Cc1ncsc1C(=O)N(Cc1cc(=O)[nH]c2c(F)cccc12)c1cccc(C#N)c1` [Example 95, N-(3-Cyanophenyl)-N-((8-fluoro-2-oxo-1,2-dihydroquinolin-4-yl)methyl)-4-methylthiazole-5-carboxamide] gave a pEC50 of at least 5.30. The figure for `Cc1ncsc1C(=O)N(Cc1cc(=O)[nH]c2c(F)c(F)ccc12)c1cccc(Cl)c1F` [Example 96, N-(3-Chloro-2-fluorophenyl)-N-((7,8-fluoro-2-oxo-1,2-dihydroquinolin-4-yl)methyl)-4-methylthiazole-5-carboxamide] is at least 5.30; for `Cc1ncsc1C(=O)N(Cc1cc(=O)[nH]c2c(F)cccc12)c1ccccc1` [Example 97, N-Phenyl-N-((8-fluoro-2-oxo-1,2-dihydroquinolin-4-yl)methyl)-4-methylthiazole-5-carboxamide] it is at least 5.30; for `Cc1nc(N(C)C)sc1C(=O)N(Cc1cc(=O)[nH]c2c(F)cccc12)c1ccc(F)c(Cl)c1` [Example 98, N-(3-Chloro-4-fluorophenyl)-2-(dimethylamino)-N-((8-fluoro-2-oxo-1,2-dihydroquinolin-4-yl)methyl)-4-methylthiazole-5-carboxamide] it is at least 5.30. The figure for `Cc1nc(Br)sc1C(=O)N(Cc1cc(=O)[nH]c2ccccc12)c1ccccc1` [Example 99, 2-Bromo-4-methyl-N-((2-oxo-1,2-dihydroquinolin-4-yl)methyl)-N-phenylthiazole-5-carboxamide] is at least 5.30; for `Cc1nc(N(C)C)sc1C(=O)N(Cc1cc(=O)[nH]c2ccccc12)c1ccccc1` [Example 100, 2-(Dimethylamino)-4-methyl-N-((2-oxo-1,2-dihydroquinolin-4-yl)methyl)-N-phenylthiazole-5-carboxamide] it is at least 5.30. Under `Cc1nc(N2CCOCC2)sc1C(=O)N(Cc1cc(=O)[nH]c2ccccc12)c1ccccc1` [Example 101, 4-Methyl-2-morpholino-N-((2-oxo-1,2-dihydroquinolin-4-yl)methyl)-N-phenylthiazole-5-carboxamide] stands at least 5.30; under `Cc1nc(N2CCN(C)CC2)sc1C(=O)N(Cc1cc(=O)[nH]c2ccccc12)c1ccccc1` [Example 102, 4-Methyl-2-(4-methylpiperazin-1-yl)-N-((2-oxo-1,2-dihydroquinolin-4-yl)methyl)-N-phenylthiazole-5-carboxamide], under 5.30. As for `Cc1ccc2[nH]c(=O)c(CN(Cc3ccccc3)c3ccc(C#N)cn3)cc2c1` [Example 103, 6-(Benzyl((6-methyl-2-oxo-1,2-dihydroquinolin-3-yl)methyl)amino)nicotinonitrile], the pEC50 is under 5.30. The figure for `Cc1ncsc1CN(C(=O)c1cc(=O)[nH]c2c(F)cccc12)c1ccc(F)c(Cl)c1` [Example 104, N-(3-Chloro-4-fluorophenyl)-8-fluoro-N-((4-methylthiazol-5-yl)methyl)-2-oxo-1,2-dihydroquinoline-4-carboxamide] is under 5.30; for `O=C(c1cc(=O)[nH]c2c(F)cccc12)N(Cc1cscn1)c1cccc(Cl)c1` [Example 105, N-(3-Chlorophenyl)-8-fluoro-2-oxo-N-(thiazol-4-ylmethyl)-1,2-dihydroquinoline-4-carboxamide] it is under 5.30; for `O=c1cc(CN2CCN(c3ccccc3F)CC2)c2ccccc2[nH]1` [Example 106, 4-((4-(2-Fluorophenyl)piperazin-1-yl)methyl)quinolin-2(1H)-one] it is under 5.30.
